Like-named read-outs stand apart in the source and are kept apart here.
Assays:
[1] = biological target: T1, human NOX1 (Homo sapiens, UniProt Q9Y5S8); experiment: WST-1 O2•- detection in NOX1-expressing CHO cells; format: cell-based; details: WST-1, PMA 0.1 μM
T1 construct: expressed in transfected cells; host or cells: CHO
T1 sequence (Q9Y5S8 1-564): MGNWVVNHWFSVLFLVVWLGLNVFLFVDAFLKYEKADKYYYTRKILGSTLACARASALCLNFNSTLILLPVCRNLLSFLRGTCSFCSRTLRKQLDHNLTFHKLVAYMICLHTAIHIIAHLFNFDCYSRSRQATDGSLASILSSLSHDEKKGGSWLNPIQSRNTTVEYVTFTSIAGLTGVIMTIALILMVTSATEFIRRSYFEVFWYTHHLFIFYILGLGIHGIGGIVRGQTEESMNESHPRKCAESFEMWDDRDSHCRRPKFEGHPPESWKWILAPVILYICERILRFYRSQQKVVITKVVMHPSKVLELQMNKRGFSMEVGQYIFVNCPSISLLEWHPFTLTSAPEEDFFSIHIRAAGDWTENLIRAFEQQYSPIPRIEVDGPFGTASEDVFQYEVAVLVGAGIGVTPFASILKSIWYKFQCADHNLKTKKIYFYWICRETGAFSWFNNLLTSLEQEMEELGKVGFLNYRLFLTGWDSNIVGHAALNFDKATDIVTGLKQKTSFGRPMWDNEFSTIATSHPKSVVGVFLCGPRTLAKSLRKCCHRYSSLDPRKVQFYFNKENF
T1 sequence (P13498 1-195 partner): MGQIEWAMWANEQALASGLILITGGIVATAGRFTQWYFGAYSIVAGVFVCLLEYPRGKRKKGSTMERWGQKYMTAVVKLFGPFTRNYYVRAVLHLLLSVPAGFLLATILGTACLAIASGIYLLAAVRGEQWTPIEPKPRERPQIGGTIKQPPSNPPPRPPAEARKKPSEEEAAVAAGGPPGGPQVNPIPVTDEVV

[2] = biological target: T2, DUOX2 (Homo sapiens, UniProt Q9NRD8); experiment: Amplex Red/HRP H2O2 detection in DUOX2-expressing HEK293 cells; format: cell-based; details: PMA 0.1 μM and ionomycin 1 μM, read-out: IC50 DUOX2 (HEK) AR
T2 construct: expressed in transfected cells; host or cells: HEK293, selected with G418 and zeocin

[3] = in vitro; details: human
[4] = biological target: T3, DUOX1 (Homo sapiens, UniProt Q9NRD9); experiment: Amplex Red/HRP H2O2 detection in DUOX1-expressing HEK293 cells; format: cell-based
T3 construct: expressed in transfected cells; host or cells: HEK293, selected with G418 and zeocin

[5] = biological target: T4, human NOX4 (Homo sapiens, UniProt Q9NPH5); experiment: Amplex Red/HRP H2O2 detection in tetracycline-induced NOX4 HEK293 T-REx cells
T4 sequence (Q9NPH5 1-578): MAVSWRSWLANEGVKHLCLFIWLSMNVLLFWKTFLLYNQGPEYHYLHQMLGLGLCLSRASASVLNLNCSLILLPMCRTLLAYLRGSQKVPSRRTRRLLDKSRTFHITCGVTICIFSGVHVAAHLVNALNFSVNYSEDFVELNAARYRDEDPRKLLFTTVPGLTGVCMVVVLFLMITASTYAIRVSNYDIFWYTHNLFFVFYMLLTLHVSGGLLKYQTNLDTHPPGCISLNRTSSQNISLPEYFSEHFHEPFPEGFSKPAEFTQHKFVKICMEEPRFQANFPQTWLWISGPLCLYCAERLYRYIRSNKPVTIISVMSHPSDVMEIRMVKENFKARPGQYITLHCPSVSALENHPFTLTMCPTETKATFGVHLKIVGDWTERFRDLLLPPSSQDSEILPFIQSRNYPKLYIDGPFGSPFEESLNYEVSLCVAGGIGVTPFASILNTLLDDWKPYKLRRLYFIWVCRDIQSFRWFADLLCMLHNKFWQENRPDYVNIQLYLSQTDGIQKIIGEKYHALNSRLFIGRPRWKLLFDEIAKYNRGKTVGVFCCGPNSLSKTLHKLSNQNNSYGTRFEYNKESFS
T4 sequence (P13498 1-195 partner): T1 sequence (P13498 1-195 partner)

[6] = Cell-free Amplex Red/HRP assay with 10 μM H2O2 (H2O2 scavenging / HRP inhibition); details: 10 μM H2O2, Amplex Red/HRP, read-out: Scavenging effect IC50 AR H2O2
[7] = biological target: T4, human NOX4; experiment: WST-1 O2•- detection in tetracycline-induced NOX4 HEK293 T-REx cells; format: cell-based; details: WST-1, tetracycline 1 μg/mL 24 h
[8] = biological target: T1, human NOX1; experiment: Amplex Red/HRP H2O2 detection in NOX1-expressing CHO cells; format: cell-based; details: PMA 0.1 μM, read-out: IC50 NOX1 (CHO) AR
[9] = Amplex red/HRP, PMA 0.1 μM and ionomycin 1 μM, read-out: IC50 DUOX1 (HEK) AR

T3 sequence (Q9NRD9 22-1551): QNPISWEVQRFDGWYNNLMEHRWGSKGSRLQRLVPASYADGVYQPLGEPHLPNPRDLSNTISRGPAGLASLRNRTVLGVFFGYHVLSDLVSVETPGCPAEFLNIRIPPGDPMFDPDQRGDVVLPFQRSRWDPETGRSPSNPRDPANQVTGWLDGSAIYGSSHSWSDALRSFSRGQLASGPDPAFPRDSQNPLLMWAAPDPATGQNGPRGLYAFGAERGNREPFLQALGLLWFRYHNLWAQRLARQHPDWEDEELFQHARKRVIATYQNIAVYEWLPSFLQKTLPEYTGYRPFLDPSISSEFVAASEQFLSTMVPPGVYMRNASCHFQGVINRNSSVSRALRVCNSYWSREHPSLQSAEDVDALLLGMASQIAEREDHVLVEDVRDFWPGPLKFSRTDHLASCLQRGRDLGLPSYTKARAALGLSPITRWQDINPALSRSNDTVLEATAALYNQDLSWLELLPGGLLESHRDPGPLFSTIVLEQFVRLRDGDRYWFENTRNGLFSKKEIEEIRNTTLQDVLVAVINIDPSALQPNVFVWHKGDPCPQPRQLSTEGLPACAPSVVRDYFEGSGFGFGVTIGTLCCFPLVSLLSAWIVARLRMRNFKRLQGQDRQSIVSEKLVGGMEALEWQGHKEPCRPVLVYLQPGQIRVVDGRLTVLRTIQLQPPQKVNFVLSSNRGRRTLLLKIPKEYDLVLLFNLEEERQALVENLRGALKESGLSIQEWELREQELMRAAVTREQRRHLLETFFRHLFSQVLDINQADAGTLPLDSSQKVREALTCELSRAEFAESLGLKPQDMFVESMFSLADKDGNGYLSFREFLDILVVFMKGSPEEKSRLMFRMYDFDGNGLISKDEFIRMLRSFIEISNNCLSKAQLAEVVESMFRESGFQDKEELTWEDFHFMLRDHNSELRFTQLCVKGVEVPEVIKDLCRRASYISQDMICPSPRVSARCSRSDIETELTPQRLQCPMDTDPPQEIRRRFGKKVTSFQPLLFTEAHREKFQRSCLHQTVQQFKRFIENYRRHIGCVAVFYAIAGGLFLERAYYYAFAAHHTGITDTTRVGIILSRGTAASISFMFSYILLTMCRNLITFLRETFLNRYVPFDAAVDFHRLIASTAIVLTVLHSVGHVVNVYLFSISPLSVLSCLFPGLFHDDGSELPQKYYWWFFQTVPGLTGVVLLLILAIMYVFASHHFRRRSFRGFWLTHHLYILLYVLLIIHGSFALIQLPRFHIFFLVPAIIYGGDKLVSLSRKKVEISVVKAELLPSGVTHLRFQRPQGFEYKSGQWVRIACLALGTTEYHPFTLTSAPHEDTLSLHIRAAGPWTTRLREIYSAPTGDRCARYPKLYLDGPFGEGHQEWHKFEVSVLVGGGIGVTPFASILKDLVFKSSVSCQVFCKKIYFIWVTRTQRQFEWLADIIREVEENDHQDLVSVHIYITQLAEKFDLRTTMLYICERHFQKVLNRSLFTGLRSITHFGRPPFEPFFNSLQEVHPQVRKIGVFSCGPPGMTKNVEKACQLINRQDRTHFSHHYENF
T3 sequence (Q1HG43 whole entry partner): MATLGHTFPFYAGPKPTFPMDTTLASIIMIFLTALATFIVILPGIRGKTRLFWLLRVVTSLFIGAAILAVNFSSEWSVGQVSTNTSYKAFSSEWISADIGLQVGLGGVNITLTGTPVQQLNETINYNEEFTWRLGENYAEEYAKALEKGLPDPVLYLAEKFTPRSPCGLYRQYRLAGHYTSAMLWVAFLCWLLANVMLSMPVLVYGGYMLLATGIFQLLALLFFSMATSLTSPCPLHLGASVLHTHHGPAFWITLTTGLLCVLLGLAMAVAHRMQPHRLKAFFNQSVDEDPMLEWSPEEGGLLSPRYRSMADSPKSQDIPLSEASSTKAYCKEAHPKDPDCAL
T2 sequence (Q9NRD8 26-1548): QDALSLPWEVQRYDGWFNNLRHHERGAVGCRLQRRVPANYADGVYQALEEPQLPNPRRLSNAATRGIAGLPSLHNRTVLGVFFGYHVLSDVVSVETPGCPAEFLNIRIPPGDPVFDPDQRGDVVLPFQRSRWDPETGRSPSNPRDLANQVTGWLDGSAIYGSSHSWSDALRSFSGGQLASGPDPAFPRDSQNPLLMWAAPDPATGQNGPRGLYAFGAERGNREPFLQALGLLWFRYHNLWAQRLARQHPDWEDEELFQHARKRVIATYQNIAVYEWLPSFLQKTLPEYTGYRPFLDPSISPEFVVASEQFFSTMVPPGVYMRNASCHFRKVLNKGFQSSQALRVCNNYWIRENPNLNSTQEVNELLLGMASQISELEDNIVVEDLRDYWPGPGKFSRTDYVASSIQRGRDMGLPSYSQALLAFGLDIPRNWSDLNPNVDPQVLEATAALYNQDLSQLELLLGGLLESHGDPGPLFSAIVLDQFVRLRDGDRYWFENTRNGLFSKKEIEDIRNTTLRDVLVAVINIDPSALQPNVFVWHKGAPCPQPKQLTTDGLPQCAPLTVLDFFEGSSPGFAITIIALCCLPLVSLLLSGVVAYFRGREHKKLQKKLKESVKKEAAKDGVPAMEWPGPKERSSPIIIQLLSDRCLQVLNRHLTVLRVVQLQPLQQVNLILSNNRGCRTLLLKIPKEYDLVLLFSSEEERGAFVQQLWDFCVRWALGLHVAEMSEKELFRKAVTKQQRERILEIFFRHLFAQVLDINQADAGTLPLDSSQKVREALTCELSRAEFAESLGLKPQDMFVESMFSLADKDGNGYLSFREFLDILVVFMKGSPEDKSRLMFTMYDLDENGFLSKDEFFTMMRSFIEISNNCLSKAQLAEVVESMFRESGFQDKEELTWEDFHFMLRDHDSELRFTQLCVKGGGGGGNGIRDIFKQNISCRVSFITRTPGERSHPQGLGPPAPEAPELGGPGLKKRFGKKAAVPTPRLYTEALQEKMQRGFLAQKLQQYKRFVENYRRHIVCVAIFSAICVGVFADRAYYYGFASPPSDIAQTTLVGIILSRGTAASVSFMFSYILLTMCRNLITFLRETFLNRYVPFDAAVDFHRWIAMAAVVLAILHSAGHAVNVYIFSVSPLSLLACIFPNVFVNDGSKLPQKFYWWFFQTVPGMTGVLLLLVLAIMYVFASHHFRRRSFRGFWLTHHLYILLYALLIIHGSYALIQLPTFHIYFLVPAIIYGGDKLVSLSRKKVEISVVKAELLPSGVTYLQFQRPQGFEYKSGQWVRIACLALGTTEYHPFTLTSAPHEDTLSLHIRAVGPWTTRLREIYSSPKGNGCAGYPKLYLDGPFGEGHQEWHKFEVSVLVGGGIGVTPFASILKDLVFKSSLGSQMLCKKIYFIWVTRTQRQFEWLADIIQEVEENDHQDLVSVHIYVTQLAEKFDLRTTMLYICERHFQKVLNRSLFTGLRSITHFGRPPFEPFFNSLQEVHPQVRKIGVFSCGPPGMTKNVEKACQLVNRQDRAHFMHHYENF
T2 sequence (Q1HG44 whole entry partner): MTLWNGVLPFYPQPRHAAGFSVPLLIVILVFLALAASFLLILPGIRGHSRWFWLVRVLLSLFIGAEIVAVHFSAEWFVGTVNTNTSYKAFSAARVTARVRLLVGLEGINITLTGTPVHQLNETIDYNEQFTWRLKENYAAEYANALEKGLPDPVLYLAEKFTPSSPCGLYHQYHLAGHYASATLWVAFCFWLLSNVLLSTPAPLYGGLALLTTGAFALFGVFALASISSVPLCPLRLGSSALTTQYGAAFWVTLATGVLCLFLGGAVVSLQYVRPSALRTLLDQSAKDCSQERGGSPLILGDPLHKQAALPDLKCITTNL

Row | IC50 [1] [µM] | IC50 [2] [µM] | IC50 [4, 9] [µM] | IC50 [5] [µM] | IC50 [6] [µM] | IC50 [7] [µM] | IC50 [8] [µM] | SMILES | CC50 at 1 h [3] [µM] | IC50 [4] [µM] | CC50 at 1 h ([3]; PLB-985 cells) [µM]
1 | > 50 | > 50 | > 50 | > 50 | > 50 | > 50 | > 50 | COc1cc(C(C)=O)ccc1O [Apocynin, apocynin] | > 50 | – | –
2 | > 50 | 21.7 | 13.6 | > 50 | 11.5 | > 50 | 32.7 | COc1cc(C(C)=O)cc(-c2cc(C(C)=O)cc(OC)c2O)c1O [Diapocynin, diapocynin] | – | – | > 50
3 | > 50 | 9.8 | 5.9 | 2.7 | 1.9 | > 50 | 9.2 | Cc1c2c(=O)n(-c3ccccc3Cl)[nH]c2cc(=O)n1Cc1ccccn1 [GKT136901] | – | – | > 50

Row | SMILES | IC50 [1] [µM] | IC50 [2] [µM] | IC50 [4, 9] [µM] | IC50 [5] [µM] | IC50 [6] [µM] | IC50 [7] [µM] | IC50 [8] [µM] | CC50 at 1 h [3] [µM] | IC50 [4] [µM] | CC50 at 1 h ([3]; PLB-985 cells) [µM]
4 | c1ccc2c(c1)[I+]c1ccccc1-2 [DPI, diphenylene iodonium chloride] | – | – | – | – | > 50 | – | – | > 50 | 1.4 | –
5 | O=c1c2ccccc2[se]n1-c1ccccc1 [Ebselen, ebselen] | 31.6 | 4.2 | 4.2 | 4.1 | 3.3 | – | 2.9 | – | – | 3.1
